Reference: article PMC9468336, “The choanoflagellate pore-forming lectin SaroL-1 punches holes in cancer cells by targeting the tumor-related glycosphingolipid Gb3” (Communications Biology, 2022)
Read-outs that look alike come from different tables or passages of the source.

Tests used:
[1] = biological target: T1, SaroL-1 (Salpingoeca rosetta, UniProt F2UID9); experiment: Inhibition of SaroL-1 (217 nM) induced hemolysis of rabbit erythrocytes after 1 h pre-incubation of lectin with sugar at RT, then 1-2 h at 37 °C, absorbance of supernatant at 540 nm.; type: cell-based; settings: n = 2
T1 construct: gene PTSG_08235; monomeric in solution
Description: Hemolytic assay (HA) and inhibition of hemolytic activity (IHA)
(§1) Both HA and IHA assays were performed in U-shaped 96-well microtiter plates. In both cases, a control negative experiment was performed with Buffer A added to erythrocyte solution (2% final concentration), and the resulting value was subtracted from all data.
(§2) IHA was performed in U-shaped 96-well microtiter plates. […] 4% rabbit erythrocytes were added to the mixture in a 1:1 ratio and incubated for 1–2 h at 37 °C. The samples were centrifuged, 2600 × g for 15 min at RT, and the absorbance of the supernatant was measured at 540 nm by a Tecan reader.

[2] = biological target: T1, SaroL-1; experiment: Isothermal titration calorimetry (MicroCal iTC200) at 25 °C in 20 mM Tris/HCl pH 7.5, 100 mM NaCl, ligand titrated into SaroL-1, one-site model with stoichiometry N fixed to 3.; type: binding
Description: Isothermal Titration Calorimetry (ITC)
ITC experiments were performed with MicroCaliTC200 (Malvern Panalytical). Experiments were carried out at 25 °C ± 0.1 °C. SaroL-1 and ligands samples were prepared in Buffer A. The ITC cell contained SaroL-1 in a concentration range from 0.05 mM to 0.16 mM. The syringe contained the ligand solutions in a concentration from 10 to 50 mM. 2 μL of ligands solutions were injected into the sample cell at intervals of 120 s while stirring at 750 rpm. Integrated heat effects were analysed by nonlinear regression using one site binding model (MicroCal PEAQ-ITC Analysis software). The experimental data were fitted to a theoretical curve, which gave the dissociation constant (Kd) and the enthalpy of binding (∆H).

[3] = biological target: T2, hemolytic activity of SaroL-1 on rabbit erythrocytes (Salpingoeca rosetta, UniProt F2UID9); experiment: Inhibition of hemolytic activity (IHA) of SaroL-1 by carbohydrates; type: cell-based; settings: for inhibition: SaroL-1 217 nM, read-out: Mean % inhibition of hemolysis
T2 sequence (F2UID9 1-329): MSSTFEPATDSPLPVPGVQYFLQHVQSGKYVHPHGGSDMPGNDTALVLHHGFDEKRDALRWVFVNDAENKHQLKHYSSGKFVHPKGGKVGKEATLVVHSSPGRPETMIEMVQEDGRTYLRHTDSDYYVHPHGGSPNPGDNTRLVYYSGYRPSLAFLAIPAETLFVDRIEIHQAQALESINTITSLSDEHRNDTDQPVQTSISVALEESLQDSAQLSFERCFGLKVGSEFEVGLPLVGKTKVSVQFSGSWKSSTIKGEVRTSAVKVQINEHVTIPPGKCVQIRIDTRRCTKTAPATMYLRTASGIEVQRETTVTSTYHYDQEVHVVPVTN
Description: as §1, §2

[4] = test system: SaroL-1; experiment: Isothermal titration calorimetry of galactosyl-ligands with SaroL-1; type: binding, Salpingoeca rosetta; settings: ITC

Row | Compound | IC50 [1] [µM] | Kd [2] [µM] | inhibition ([3]; sugar 0.003 mM) [%] | inhibition ([3]; sugar 0.006 mM) [%] | inhibition ([3]; sugar 0.0125 mM) [%] | inhibition ([3]; sugar 0.025 mM) [%] | inhibition ([3]; sugar 0.05 mM) [%] | inhibition ([3]; sugar 0.1 mM) [%] | inhibition ([3]; sugar 0.2 mM) [%] | inhibition ([3]; sugar 0.4 mM) [%] | inhibition ([3]; sugar 0.8 mM) [%] | inhibition ([3]; sugar 1.6 mM) [%] | inhibition ([3]; sugar 3.125 mM) [%] | inhibition ([3]; sugar 6.25 mM) [%] | inhibition ([3]; sugar 12.5 mM) [%] | inhibition ([3]; sugar 25 mM) [%] | inhibition ([3]; sugar 50 mM) [%] | binding to SaroL-1 (in words) [4] | IC50 ([3]; SaroL-1 217 nM pre-incubated with carbohydrate, read-out: IC50 of inhibition of hemolysis) [µM] | inhibition of hemolysis (in words) ([3]; 10 mM carbohydrate)
1 | CC(=O)N[C@H]1C(O)O[C@H](CO)[C@H](O)[C@@H]1O (stereo partly shown) [GalNAc, N-acetylgalactosamine] | 4900 | 2760 | 3.76 | 7.37 | 8.89 | 4 | 2.33 | 6.61 | 6.57 | 9.48 | 14.5 | 27.3 | 42.5 | 64 | 83.1 | 98.8 | 100 | – | – | –
2 | CO[C@H]1O[C@H](CO)[C@H](O)[C@H](O)[C@H]1O [GalαOMe, α-methyl galactoside] | – | 2170 | – | – | – | – | – | – | – | – | – | – | – | – | – | – | – | – | – | –
3 | OC[C@H]1O[C@@H](O[C@H]2[C@H](O)[C@@H](O)[C@H](O)O[C@@H]2CO)[C@H](O)[C@@H](O)[C@H]1O [Lactose, lactose] | – | – | – | – | – | – | – | – | – | – | – | – | – | – | – | – | – | very weak binding | 11900 | –
4 | OC[C@H]1O[C@H](OCC2O[C@@H](O)[C@H](O)[C@@H](O)[C@@H]2O)[C@H](O)[C@@H](O)[C@H]1O (stereo partly shown) [melibiose] | – | – | 0.665 | 2.27 | 3.73 | 7.43 | 7.01 | 9.7 | 15.2 | 22.7 | 36.1 | 54.5 | 76.3 | 91.8 | 100 | 100 | 100 | – | – | complete inhibition
5 | OC[C@H]1O[C@H](O[C@H]2[C@@H](O)[C@@H](CO)OC(O)[C@@H]2O)[C@H](O)[C@@H](O)[C@H]1O (stereo partly drawn) [αGal1-3Gal, α-D-galactopyranosyl-(1-3)-D-galactose] | – | 1380 | – | – | – | – | – | – | – | – | – | – | – | – | – | – | – | – | – | –
